This note sets out measurements from patent US20250340561A1, “QUINAZOLINE COMPOUND FOR INDUCING DEGRADATION OF G12D MUTANT KRAS PROTEIN” (Astellas Pharma Inc., priority 2021, published 2025).

Usually DC50 stands for the concentration at which degradation of the target reaches its halfway point.

In this test the target is T1, KRAS G12D (Homo sapiens, UniProt P01116, G12D).
T1 construct: host or cells: AsPC-1 human pancreatic cancer cells
T1 sequence (P01116 1-188 isoform P01116-2 G12D): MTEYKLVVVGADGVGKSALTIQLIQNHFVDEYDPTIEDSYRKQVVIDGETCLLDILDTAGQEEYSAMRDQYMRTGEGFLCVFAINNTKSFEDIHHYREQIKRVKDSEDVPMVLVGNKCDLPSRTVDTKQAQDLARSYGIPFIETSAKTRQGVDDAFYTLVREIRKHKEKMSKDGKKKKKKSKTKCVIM
Description: Test Example 1-2: KRAS degradation action in AsPC-1, Cell ELISA. It counts as cell-based. To be noted: AsPC-1 cells, overnight treatment, corrected with β-actin, 0% = 10 μM Example No. 26 (Example No. 8 for Example Nos. 74 and 75). Here is the method:
Test Example 1-2: Evaluation of KRAS Degradation Action on Human G12D Mutant KRAS-Positive Pancreatic Cancer Line AsPC-1
The KRAS degradation action of test compounds was evaluated by measuring the expression levels of KRAS G12D by Cell ELISA.
[…] As for the cell culture conditions, a RPMI 1640 medium containing 10% fetal bovine serum was used in the presence of 5% CO2 at 37° C. The next day, the test compounds (10 points having final concentrations in the range of 10 μM to 0.3 nM), the compound of Example No. 26 (Example No. 8 for Example Nos. 74 and 75) of a final concentration of 10 μM as a positive control and DMSO, which was the solvent for the test compounds, as a negative control were diluted 500-fold with a fresh medium and were added at 20 μL per well. The cells were cultured overnight.
The next day, the culture supernatant was removed, and 4% paraformaldehyde phosphate buffer (from FUJIFILM Wako Pure Chemical Corporation) was added at 20 μL per well. The plate was allowed to stand for 30 minutes at room temperature to thus immobilize the cells. Then, the supernatant was removed, and 0.1% Triton X-100 (from Amersham Biosciences)-containing PBS was added at 20 μL per well. After allowing to stand for 10 minutes at room temperature, the supernatant was removed. PBS was added at 25 μL per well, and the supernatant was removed to thus wash each well. The washing was performed twice in total. Next, the supernatant was removed, and 0.5% sodium dodecyl sulfate (SDS; from Invitrogen)-containing PBS was added at 20 μL per well. After allowing to stand at room temperature for 10 minutes, the supernatant was removed by centrifugation (using a centrifugal dehydrator machine, the supernatant was removed by the same method hereinafter). PBS was added at 25 μL per well, and the supernatant was removed to thus wash each well. The washing was performed twice in total. The supernatant was removed by centrifugation, and a blocking solution (Intercept Blocking Buffer) was added at 20 μL per well. After allowing to stand for 30 minutes at room temperature, the supernatant was removed by centrifugation, and a solution obtained by diluting an anti-Ras (G12D Mutant Specific) antibody and an anti-3-actin antibody 1,000-fold with a blocking solution was added at 20 μL per well as a primary antibody. The plate was allowed to stand overnight at 4° C.
The next day, the plate was centrifuged to remove the supernatant. PBS was added at […], and the supernatant was removed to thus wash each well. The washing was performed twice in total. The supernatant was removed by centrifugation, and a solution obtained by diluting Donkey anti-Mouse IgG H&L (TRDye 680RD) (from Li—COR Biosciences) and Goat anti-Rabbit IgG H&L (IRDye 800CW) (from Li—COR Biosciences) 1,000-fold with a blocking solution was added at 20 μL per well as a secondary antibody. After allowing to stand for 1 hour at room temperature, the supernatant was removed. PBS was added at 25 μL per well, and the supernatant was removed to thus wash each well. The washing was performed twice in total. After removing the supernatant by centrifuging the plate, the plate was dried as it was with air at room temperature for 2 hours or more, and the 700-nm and 800-nm fluorescent signals were measured with Aerius (from LI-COR Biosciences).
With the signaling value at the time of addition of DMSO corrected with the signaling value of β-actin taken as 100% and with the signaling value at the time of addition of 10 μM of the compound of Example No. 26 taken as 0%, the 50% degradation values (DC50) of the amounts of KRAS were calculated by Sigmoid-Emax model nonlinear regression analysis. The molecular weights of the test compounds were calculated as the molecular weights of the trihydrochloride for Example No. 30, the tetrahydrochloride for Example No. 46 and the free forms forming no salt for the remaining Example Nos. The results for some test compounds of the formula (I) are shown in Table 2.
A general note: ELISA stands for enzyme-linked immunosorbent assay.
In the case of `Cc1ncsc1-c1ccc([C@H](CO)NC(=O)[C@@H]2C[C@@H](O)CN2C(=O)[C@H](C(C)C)n2cc(-c3ccc(COc4c(-c5c(C)c(F)cc6[nH]ncc56)c(C5CC5)cc5c(N6C[C@@H]7C[C@H]6CN7)nc(O[C@@H]6CCN(CC(F)F)C6)nc45)cc3)nn2)cc1` [Example 34], the DC50 came to 24 nM. This lies in the double-digit nanomolar range. To `CO[C@@H](C)COc1nc(N2C[C@@H]3C[C@H]2CN3)c2cc(C3CC3)c(-c3c(C)c(F)cc4[nH]ncc34)c(OCc3ccc(-c4cn([C@H](C(=O)N5C[C@H](O)C[C@H]5C(=O)N[C@@H](CO)c5ccc(-n6ccnc6C)cc5)C(C)C)nn4)cc3)c2n1` [Example 71] belongs 35 nM. To `Cc1ncsc1-c1ccc([C@H](CO)NC(=O)[C@@H]2C[C@@H](O)CN2C(=O)[C@H](C(C)C)n2cc(-c3ccc(COc4c(-c5c(C)c(F)cc6[nH]ncc56)c(C5CC5)cc5c(N6C[C@@H]7C[C@H]6CN7)nc(OC[C@H]6CCOC6)nc45)cc3)nn2)cc1` [Example 52] belongs 10 nM; to `CO[C@@H](C)COc1nc(N2C[C@@H]3C[C@H]2CN3)c2cc(C3CC3)c(-c3c(C)c(F)cc4[nH]ncc34)c(OCc3ccc(-c4cn([C@H](C(=O)N5C[C@H](O)C[C@H]5C(=O)N[C@@H](CO)c5ccc(-c6scnc6C)cc5)C(C)C)nn4)cc3)c2n1` [Example 48], 4 nM; to `Cc1ncsc1-c1ccc([C@H](CO)NC(=O)[C@@H]2C[C@@H](O)CN2C(=O)[C@H](C(C)C)n2cc(-c3ccc(COc4c(-c5c(C)c(F)cc6[nH]ncc56)c(C5CC5)cc5c(N6C[C@@H]7C[C@H]6CN7)nc(NCCO)nc45)cc3)nn2)cc1` [Example 66], 250 nM.

In the case of `Cc1ncsc1-c1ccc([C@H](CO)NC(=O)[C@@H]2C[C@@H](O)CN2C(=O)[C@H](C(C)C)n2cc(-c3ccc(COc4c(-c5c(C)c(F)cc6[nH]ncc56)c(C5CC5)cc5c(N6C[C@@H]7C[C@H]6CN7)nc(OC6CCOCC6)nc45)cc3F)nn2)cc1` [Example 49, (4R)-1-[(2S)-2-(4-{4-[({6-cyclopropyl-4-[(1S,4S)-2,5-diazabicyclo[2.2.1]heptan-2-yl]-7-(6-fluoro-5-methyl-1H-indazol-4-yl)-2-[(oxan-4-yl)oxy]quinazolin-8-yl}oxy)methyl]-2-fluorophenyl}-1H-1,2,3-triazol-1-yl)-3-methylbutanoyl]-4-hydroxy-N-{(1R)-2-hydroxy-1-[4-(4-methyl-1,3-thiazol-5-yl)phenyl]ethyl}-L-prolinamide], half-maximal degradation (DC50) was put at 15 nM. To `CO[C@@H](C)COc1nc(N2C[C@@H]3C[C@H]2CN3)c2cc(C3CC3)c(-c3c(C)c(F)cc4[nH]ncc34)c(OCc3ccc(-c4cn([C@H](C(=O)N5C[C@H](O)C[C@H]5C(=O)N[C@@H](CO)c5ccc(-c6ocnc6C)cc5)C(C)C)nn4)cc3)c2n1` [Example 72] belongs 16 nM. To `Cc1ncsc1-c1ccc([C@H](CO)NC(=O)[C@@H]2C[C@@H](O)CN2C(=O)[C@H](C(C)C)n2cc(-c3ccc(COc4c(-c5c(C)c(F)cc6[nH]ncc56)c(C5CC5)cc5c(N6C[C@@H]7C[C@H]6CN7)nc(O[C@@H](C)[C@H](C)O)nc45)cc3)nn2)cc1` [Example 42] belongs 6 nM; to `Cc1ncsc1-c1ccc([C@H](CO)NC(=O)[C@@H]2C[C@@H](O)CN2C(=O)[C@H](C(C)C)n2cc(-c3ccc(COc4c(-c5c(C)c(F)cc6[nH]ncc56)c(C5CC5)cc5c(N6C[C@@H]7C[C@H]6CN7)nc(OCC6(CO)CCOCC6)nc45)cc3)nn2)cc1` (atropisomer, axis not shown) [Example 36], 17 nM.

The compound `COC[C@@H](C)Oc1nc(N2C[C@@H]3C[C@H]2CN3)c2cc(C3CC3)c(-c3c(C)c(F)cc4[nH]ncc34)c(OCc3ccc(-c4cn([C@H](C(=O)N5C[C@H](O)C[C@H]5C(=O)N[C@@H](CO)c5ccc(-c6scnc6C)cc5)C(C)C)nn4)cc3)c2n1` [Example 40] registered a DC50 of 5 nM. Against the preceding compound, the DC50 is about 3.4-fold lower. To `Cc1ncoc1-c1ccc([C@H](CO)NC(=O)[C@@H]2C[C@@H](O)CN2C(=O)[C@H](C(C)C)n2cc(-c3ccc(COc4c(-c5c(C)c(F)cc6[nH]ncc56)c(C5CC5)cc5c(N6C[C@@H]7C[C@H]6CN7)nc(OC6CCOCC6)nc45)cc3)nn2)cc1` [Example 38] belongs 53 nM.

`Cc1ncsc1-c1ccc([C@H](CO)NC(=O)[C@@H]2C[C@@H](O)CN2C(=O)[C@H](C(C)C)n2cc(-c3ccc(COc4c(-c5c(C)c(F)cc6[nH]ncc56)c(C5CC5)cc5c(N6C[C@@H]7C[C@H]6CN7)nc(O[C@H](C)CN6CCOCC6)nc45)cc3)nn2)cc1` [Example 45] showed a DC50 of 15 nM. To `CCn1nccc1-c1ccc([C@H](CO)NC(=O)[C@@H]2C[C@@H](O)CN2C(=O)[C@H](C(C)C)n2cc(-c3ccc(COc4c(-c5c(C)c(F)cc6[nH]ncc56)c(C5CC5)cc5c(N6C[C@@H]7C[C@H]6CN7)nc(OC[C@H](C)OC)nc45)cc3)nn2)cc1` [Example 70] belongs 14 nM. `Cc1ncsc1-c1ccc([C@H](CO)NC(=O)[C@@H]2C[C@@H](O)CN2C(=O)[C@H](C(C)C)n2cc(-c3ccc(COc4c(-c5c(C)c(F)cc6[nH]ncc56)c(C5CC5)cc5c(N6C[C@@H]7C[C@H]6CN7)nc(OC[C@@H]6CCOC6)nc45)cc3)nn2)cc1` [Example 53] came in with a DC50 of 8 nM.

The compound `CO[C@@H](C)COc1nc(N2C[C@@H]3C[C@H]2CN3)c2cc(C3CC3)c(-c3c(C)c(F)cc4[nH]ncc34)c(OCc3ccc(-c4cn([C@H](C(=O)N5C[C@H](O)C[C@H]5C(=O)N[C@@H](CO)c5ccc(F)cc5)C(C)C)nn4)cc3)c2n1` [Example 58] returned a DC50 of 37 nM. Compound `CO[C@@H](C)[C@H](C)Oc1nc(N2C[C@@H]3C[C@H]2CN3)c2cc(C3CC3)c(-c3c(C)c(F)cc4[nH]ncc34)c(OCc3ccc(-c4cn([C@H](C(=O)N5C[C@H](O)C[C@H]5C(=O)N[C@@H](CO)c5ccc(-c6scnc6C)cc5)C(C)C)nn4)cc3)c2n1` [Example 41] yielded a DC50 of 9 nM.

As for `Cc1ncsc1-c1ccc([C@H](CO)NC(=O)[C@@H]2C[C@@H](O)CN2C(=O)[C@H](C(C)C)n2cc(-c3ccc(COc4c(-c5c(C)c(F)cc6[nH]ncc56)c(C5CC5)cc5c(N6C[C@@H]7C[C@H]6CN7)nc(O[C@H](C)[C@@H](C)O)nc45)cc3)nn2)cc1` (atropisomer, axis not shown) [Example 37], half-maximal degradation (DC50) was put at 25 nM. To `Cc1ncsc1-c1ccc([C@H](CO)NC(=O)[C@@H]2C[C@@H](O)CN2C(=O)[C@H](C(C)C)n2cc(-c3ccc(COc4c(-c5c(C)c(F)cc6[nH]ncc56)c(C5CC5)cc5c(N6C[C@@H]7C[C@H]6CN7)nc(OC[C@H](C)N6CCCC6)nc45)cc3)nn2)cc1` [Example 64] belongs 48 nM; to `COC[C@H](CN1CCOCC1)Oc1nc(N2C[C@@H]3C[C@H]2CN3)c2cc(C3CC3)c(-c3c(C)c(F)cc4[nH]ncc34)c(OCc3ccc(-c4cn([C@H](C(=O)N5C[C@H](O)C[C@H]5C(=O)N[C@@H](CO)c5ccc(-c6scnc6C)cc5)C(C)C)nn4)cc3)c2n1` [Example 55], 24 nM. To `Cc1ncsc1-c1ccc([C@H](CO)NC(=O)[C@@H]2C[C@@H](O)CN2C(=O)[C@H](C(C)C)n2cc(-c3ccc(COc4c(-c5c(C)c(F)cc6[nH]ncc56)c(C5CC5)cc5c(N6C[C@@H]7C[C@H]6CN7)nc(OC6CCOCC6)nc45)cc3)nn2)nc1` [Example 35] belongs 84 nM.
